The target of data set [1] is DarB (Bacillus subtilis, UniProt O31698). To be noted: 26 µM c-di-AMP, 2.6 µM DarB, 0.26 µM PC, 25 mM KHCO3, 2.5 mM pyruvate, 0.1 mM acetyl-CoA; c-di-AMP acts on DarB, not on PC.
Data set [2] concerns the target DarB (Bacillus subtilis, UniProt O31698, L38F). Particulars: 20 °C; 10 µM DarB-L38F in cell, 100 µM c-di-AMP in syringe.
The target in data set [3] is T1, PC; pyruvate carboxylase (PycA) (Bacillus subtilis, UniProt Q9KWU4).
T1 construct: gene pyc; full length (1148 residues), C-terminal 6xHis (pET28a, pGP3458), from E. coli Rosetta(DE3), biotinylated with BirA; tetrameric
The experiment in a line: malate dehydrogenase-coupled NADH oxidation, […] nm. Format: biochemical.

In data set [4] the target is T2, PC-6×His (pyruvate carboxylase), biotinylated (B. subtilis, UniProt Q9KWU4 1-1148, biotin (naturally biotinylated or biotinylated in vitro with BirA)).
T2 construct: pyruvate carboxylase (PC), encoded by pycA, Bacillus subtilis 168; wild type; domains BC, CT, BCCP; also called His-PC; PycA; source: E. coli Rosetta(DE3) (pGP3458), purified (Ni-NTA, StrepTactin); biotinylated in vitro with purified BirA; not shown: 6×His, C-terminal, kept
T2 sequence (looked up): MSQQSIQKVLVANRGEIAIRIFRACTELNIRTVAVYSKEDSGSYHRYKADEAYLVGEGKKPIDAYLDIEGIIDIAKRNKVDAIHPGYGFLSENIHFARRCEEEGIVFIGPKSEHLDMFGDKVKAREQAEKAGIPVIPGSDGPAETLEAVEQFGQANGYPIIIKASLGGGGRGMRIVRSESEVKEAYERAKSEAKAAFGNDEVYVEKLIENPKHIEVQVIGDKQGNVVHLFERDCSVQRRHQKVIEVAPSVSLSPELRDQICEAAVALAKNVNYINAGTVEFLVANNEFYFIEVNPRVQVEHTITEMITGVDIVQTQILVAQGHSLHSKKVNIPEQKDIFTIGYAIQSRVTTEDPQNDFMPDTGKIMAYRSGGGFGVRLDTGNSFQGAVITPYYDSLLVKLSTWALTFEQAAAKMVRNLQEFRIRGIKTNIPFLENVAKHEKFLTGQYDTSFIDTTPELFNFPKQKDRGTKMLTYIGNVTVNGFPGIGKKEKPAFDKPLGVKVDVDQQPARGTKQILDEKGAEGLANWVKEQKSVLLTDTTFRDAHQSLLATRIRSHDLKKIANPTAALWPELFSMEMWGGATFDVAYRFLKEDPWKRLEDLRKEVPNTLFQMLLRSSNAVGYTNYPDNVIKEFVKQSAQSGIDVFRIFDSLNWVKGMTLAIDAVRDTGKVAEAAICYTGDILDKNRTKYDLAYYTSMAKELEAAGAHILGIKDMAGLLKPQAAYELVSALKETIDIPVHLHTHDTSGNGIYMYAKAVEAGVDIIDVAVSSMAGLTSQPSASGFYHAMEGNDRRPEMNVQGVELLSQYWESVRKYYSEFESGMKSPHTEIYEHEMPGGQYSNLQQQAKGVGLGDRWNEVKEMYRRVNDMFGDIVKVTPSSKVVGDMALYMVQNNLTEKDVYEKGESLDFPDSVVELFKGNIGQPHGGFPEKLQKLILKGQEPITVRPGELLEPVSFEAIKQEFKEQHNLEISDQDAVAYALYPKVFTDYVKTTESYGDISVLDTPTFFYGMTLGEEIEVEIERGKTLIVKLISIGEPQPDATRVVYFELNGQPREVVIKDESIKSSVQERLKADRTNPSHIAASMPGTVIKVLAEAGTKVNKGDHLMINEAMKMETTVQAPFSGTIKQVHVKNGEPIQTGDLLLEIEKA
The data set can be described thus: pull-down; 2 nmol biotinylated PC-6×His or PC^CT+BCCP-6×His on 250 μl StrepTactin matrix with 15 nmol DarB, DarB^L38F or YlxR, overnight at 4°C; washed with dialysis buffer (10 mM Tris pH 7.8, 150 mM KCl, 6 mM β-mercaptoethanol, 5% glycerol); eluted with 7 mM biotin; Western blot, silver stain, mass spectrometry; also with DarB preincubated with c-di-AMP (150 nmol; less DarB bound) and with acetyl-CoA (more DarB …). Particulars: both partners purified. (Immunoblotting shows a protein as a band on a membrane.)

Substrate in the data set “purified protein”: CC(=O)C(=O)O
The experiment in a line: purified protein. It counts as biochemical, Bacillus subtilis. Particulars: 0.1 mM acetyl-CoA, 2 mM ATP, 25 mM KHCO3, 5 mM MgCl2, 150 mM KCl, pH 7.8, 25 °C, no DarB.

Sequence of DarB (Bacillus subtilis, UniProt O31698) (O31698 whole entry): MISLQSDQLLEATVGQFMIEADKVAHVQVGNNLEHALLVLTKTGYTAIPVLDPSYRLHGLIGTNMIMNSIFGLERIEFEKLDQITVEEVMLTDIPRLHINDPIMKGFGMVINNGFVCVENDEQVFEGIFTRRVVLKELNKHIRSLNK

Turning to `Nc1ncnc2c1ncn2[C@@H]1O[C@@H]2COP(=O)(O)O[C@H]3[C@@H](O)[C@H](n4cnc5c(N)ncnc54)O[C@@H]3COP(=O)(O)O[C@H]2[C@H]1O` [c-di-AMP], at DarB [1], the “activation by DarB inhibited to” value was 16%. Further, the KD entry at DarB [2] is recorded as “the mutant protein binds c-di-AMP with a similar affinity as the wild-type protein”.

As to `N[C@@H](CC(=O)O)C(=O)O` [aspartate], the “malate dehydrogenase-coupled NADH oxidation, 340 nm” value in data set [3] (allosteric inhibitor, 16 mM aspartate with 0.1 mM acetyl-CoA, 2.5 mM pyruvate, DarB or BSA present) is “DarB was no longer able to activate PC in the presence of aspartate”.

Consider `CC(=O)SCCNC(=O)CCNC(=O)[C@H](O)C(C)(C)COP(=O)(O)OP(=O)(O)OC[C@H]1O[C@@H](n2cnc3c(N)ncnc32)[C@H](O)[C@@H]1OP(=O)(O)O` [acetyl-CoA], for which the “malate dehydrogenase-coupled NADH oxidation, 340 nm” value in data set [3] (allosteric activator, 25 mM KHCO3, 2.5 mM pyruvate, pH 7.8, 25 °C, various acetyl-CoA concentrations) is listed as “the activity of PC was strongly enhanced in the presence of acetyl-CoA”.

B1: DarB^L38F, purified, SUMO tag removed (natural protein, B. subtilis)
chain: MISLQSDQLLEATVGQFMIEADKVAHVQVGNNLEHALFVLTKTGYTAIPVLDPSYRLHGLIGTNMIMNSIFGLERIEFEKLDQITVEEVMLTDIPRLHINDPIMKGFGMVINNGFVCVENDEQVFEGIFTRRVVLKELNKHIRSLNK
notes: DarB, Bacillus subtilis 168, with Leu38 changed to Phe; also called DarB mutant L38F; the mutant protein; source: E. coli Rosetta(DE3) (pGP3481), purified (Ni-NTA; SUMO tag removed with SUMO protease); not shown: 6×His, N-terminal, cleaved; SUMO, N-terminal, cleaved
Turning to B1, the binding result in data set [4] is listed as “binds”.

B2: PC; pyruvate carboxylase (PycA) (Bacillus subtilis subsp. subtilis str. 168) (protein)
chain: MSQQSIQKVLVANRGEIAIRIFRACTELNIRTVAVYSKEDSGSYHRYKADEAYLVGEGKKPIDAYLDIEGIIDIAKRNKVDAIHPGYGFLSENIHFARRCEEEGIVFIGPKSEHLDMFGDKVKAREQAEKAGIPVIPGSDGPAETLEAVEQFGQANGYPIIIKASLGGGGRGMRIVRSESEVKEAYERAKSEAKAAFGNDEVYVEKLIENPKHIEVQVIGDKQGNVVHLFERDCSVQRRHQKVIEVAPSVSLSPELRDQICEAAVALAKNVNYINAGTVEFLVANNEFYFIEVNPRVQVEHTITEMITGVDIVQTQILVAQGHSLHSKKVNIPEQKDIFTIGYAIQSRVTTEDPQNDFMPDTGKIMAYRSGGGFGVRLDTGNSFQGAVITPYYDSLLVKLSTWALTFEQAAAKMVRNLQEFRIRGIKTNIPFLENVAKHEKFLTGQYDTSFIDTTPELFNFPKQKDRGTKMLTYIGNVTVNGFPGIGKKEKPAFDKPLGVKVDVDQQPARGTKQILDEKGAEGLANWVKEQKSVLLTDTTFRDAHQSLLATRIRSHDLKKIANPTAALWPELFSMEMWGGATFDVAYRFLKEDPWKRLEDLRKEVPNTLFQMLLRSSNAVGYTNYPDNVIKEFVKQSAQSGIDVFRIFDSLNWVKGMTLAIDAVRDTGKVAEAAICYTGDILDKNRTKYDLAYYTSMAKELEAAGAHILGIKDMAGLLKPQAAYELVSALKETIDIPVHLHTHDTSGNGIYMYAKAVEAGVDIIDVAVSSMAGLTSQPSASGFYHAMEGNDRRPEMNVQGVELLSQYWESVRKYYSEFESGMKSPHTEIYEHEMPGGQYSNLQQQAKGVGLGDRWNEVKEMYRRVNDMFGDIVKVTPSSKVVGDMALYMVQNNLTEKDVYEKGESLDFPDSVVELFKGNIGQPHGGFPEKLQKLILKGQEPITVRPGELLEPVSFEAIKQEFKEQHNLEISDQDAVAYALYPKVFTDYVKTTESYGDISVLDTPTFFYGMTLGEEIEVEIERGKTLIVKLISIGEPQPDATRVVYFELNGQPREVVIKDESIKSSVQERLKADRTNPSHIAASMPGTVIKVLAEAGTKVNKGDHLMINEAMKMETTVQAPFSGTIKQVHVKNGEPIQTGDLLLEIEKA
notes: full length (1148 residues), C-terminal 6xHis (pET28a, pGP3458), from E. coli Rosetta(DE3), biotinylated with BirA; tetrameric
As for B2, in “purified protein”, the Km (usually the concentration of substrate that gives half-maximal velocity) turned out to be 230 µM.
